Values quoted from earlier work, collected in US20170247647A1, “FLAVOR NANOEMULSIONS AND METHODS OF PREPARING THE SAME” (International Flavors & Fragrances Inc., priority 2014, published 2017).

Details: not given

Row | Molecule | Water Solubility (g/L, approx.)
1 | CCCC(=O)OCC [ethyl butyrate] | ~6 g/L
2 | CSC [dimethyl sulfide] | insoluble
3 | CCOC(=O)CC [ethyl propionate] | ~14 g/L
4 | CCOC(C)=O [ethyl acetate] | ~90 g/L
5 | CCCC(=O)OC [methyl butyrate] | ~15 g/L

Details: commercial surfactant

Row | Molecule | HLB
6 | Tween™ 60 | 14.9
7 | Tween™ 80 | 15
8 | Tween™ 20 | 16.7
